In paper PMC9963684, “Meroterpenoids with Immunosuppressive Activity from Edible Fungus Craterellus odoratus” (Molecules, 2023):
Values after ≈ are worked out from the molar mass of the structure shown. Peptide text beside a SMILES is read from it. * marks the point of attachment. Cbz = O=C(OCc1ccccc1)*

Legend:
[1] = system: human 11β-hydroxysteroid dehydrogenases (11β-HSD1); set-up: method as in PMID 19879607; settings: cited from earlier work
[2] = system: human embryonic kidney 293 cell; set-up: method as in PMID 26669092; settings: read-out: IC50 against human embryonic kidney 293 cell; cited from earlier work
[3] = system: human 11β-HSD2; set-up: method as in PMID 19879607; settings: cited from earlier work
[4] = system: LPS-induced B-cell proliferation (spleen cells); test: LPS-induced B-cell proliferation ([3H]-thymidine uptake); type: cell-based; settings: Mus musculus, spleen cells stimulated with 10 µg/mL LPS
Procedure: (§1) Female BALB/c mice were sacrificed by cervical dislocation, and the spleens were removed aseptically. Mononuclear cell suspensions were prepared after cell debris and clumps were removed. Erythrocytes were depleted with ammonium chloride buffer solution. Lymphocytes were washed and resuspended in RPMI-1640 medium supplemented with 10% FBS, penicillin (100 U/mL), and streptomycin ([…]).
(§2) Fresh spleen cells were obtained from female BALB/c mice (18–20 g). The 5 × 10^5 spleen cells were cultured at the same conditions as those mentioned above. The cultures, in the presence or absence of various concentrations of compounds, were stimulated with 5 µg/mL of concanavalin A (ConA) or 10 µg/mL of lipopolysaccharide (LPS) to induce T-cells’ or B-cells’ proliferative responses, respectively. Proliferation was assessed in terms of uptake of [^3H]-thymidine during 8 h of pulsing with 25 µL/well of [^3H]-thymidine, and then cells were harvested onto glass fiber filters. The incorporated radioactivity was counted using a Beta scintillation counter (MicroBeta Trilux; PerkinElmer Life Sciences, Waltham, MA, USA). Cells treated without any stimuli were used as a negative control. The immunosuppressive activity of each compound was expressed as the concentration of compound that inhibited ConA-induced T-cell proliferation or LPS-induced B-cell proliferation to 50% (IC50) of the control value. […]

[5] = Cytotoxicity assay (CCK-8) on spleen cells; type: cell-based; settings: female, fresh spleen cells (splenic lymphocytes), BALB/c mouse spleen cells
Procedure: as §1
Cytotoxicity was tested with Cell Counting Kit-8 (CCK-8) assay. Briefly, fresh spleen cells were gained from female BALB/c mice (18–20 g). Spleen cells (1 ×10^6 cells) were seeded in triplicate in 96-well flat plates, then cultured at 37 °C for 48 h in 96-well flat plates in the presence or absence of various concentrations of compounds, as well as in a humidified and 5% CO2-containing incubator. A certain amount of CCK-8 was added to each well at the final 8–10 h of culture. At the end of culturing, we measured the OD values with a microplate reader (Bio-Rad 650, Hercules, CA, USA) at 450 nm. […] The cytotoxicity of each compound was expressed as the concentration of compound that reduced cell viability to 50% (CC50).

[6] = system: Escherichia coli; set-up: L.V. Levchenko S.V. O’Neill D.P. Advances in methods and algorithms in a modern quantum chemistry program; settings: cited from earlier work
[7] = system: Staphylococcus aureus; set-up: method as in ref 17 =  L.V. Levchenko S.V. O’Neill D.P. Advances in methods and algorithms in a modern quantum chemistry program; settings: cited from earlier work
[8] = system: Micrococcus luteus; set-up: L.V. Levchenko S.V. O’Neill D.P. Advances in methods and algorithms in a modern quantum chemistry program; settings: cited from earlier work
[9] = system: ConA-induced T-cell proliferation (spleen cells); test: ConA-induced T-cell proliferation ([3H]-thymidine uptake); type: cell-based; settings: Mus musculus, spleen cells stimulated with 5 µg/mL ConA
Procedure: as §1, §2

[10] = system: Bacillus cereus; set-up: method as in ref 17 = [17];  L.V. Levchenko S.V. O’Neill D.P. Advances in methods and algorithms in a modern quantum chemistry program; settings: cited from earlier work
[11] = system: NO production in LPS-activated RAW264.7 macrophages; test: Nitric oxide production in LPS-activated RAW264.7 macrophages; type: cell-based, murine; settings: Mus musculus, positive control, 1 μg/mL LPS, 18 h
Procedure: Murine monocytic RAW264.7 macrophages were dispensed into 96-well plates (2 × 10^5 cells/well) containing RPMI-1640 medium (HyClone) with 10% FBS under a humidified atmosphere with 5% CO2 at 37 °C. After 24 h of preincubation, cells were treated with serial dilutions of the test compounds, up to a maximum concentration of 40 μM, in the presence of 1 μg/mL LPS for 18 h. The compounds were dissolved in DMSO and further diluted in the medium to produce different concentrations. NO production in each well was assessed by adding 100 μL of Griess reagent (reagent A and reagent B, Sigma, St. Louis, MO, USA) to 100 μL of each supernatant from the LPS-treated (Sigma) or LPS- and compound-treated cells in triplicate. After a 5 min incubation, the absorbance of samples was measured at 570 nm with a 2104 Envision multilabel plate reader (Perkin-Elmer Life Sciences, Inc., Boston, MA, USA).

Q: For `CC1=CCC2C(C)(C)C(O)CCC2(C)C1CC12OC1C(O)C(CO)=CC2O` (stereo not shown) [craterellin B], which “IC50 against human 11β-HSD1” value [1] is on record?
A: 3.5 µg/mL (≈ 9.25 µM)

Q: What does the source list for `C=C1[C@@H](O)[C@H]2O[C@@]2(C[C@H]2C(C)=CC[C@H]3C(C)(C)CCC[C@]23C)[C@H](O)[C@H]1O` [craterellin C]?
A: IC50 [2]: 50.9 µM; IC50 against human 11β-HSD2 [3]: 25.4 µg/mL (≈ 70.1 µM); IC50 against human 11β-HSD1 [1]: 14.8 µg/mL (≈ 40.8 µM)

Q: With `CC1=CCC2C(C)(C)CCCC2(C)C1CC12OC1C(=O)C(Cc1c(O)cc(CC(C)O)oc1=O)=CC2O` (stereo not shown) [Compound 1, craterodoratin T] as the molecule, how does the IC50 [4] read?
A: 5.52 ± 0.452 µM

Q: What about the CC50 at 48 h [5] of the same molecule?
A: > 40 µM

Q: With `CC1=CC[C@H]2C(C)(C)CCC[C@]2(C)[C@H]1C[C@@]12O[C@@H]1[C@H](O)C(CO)=C[C@H]2O` [Compound 3, craterellin A] as the molecule, how does the “MIC against Escherichia coli” value [6] read?
A: 6.25 µM (≈ 2.27 µg/mL)

Q: What about the “MIC against Staphylococcus aureus” value [7] of the same molecule?
A: 6.25 µM (≈ 2.27 µg/mL)

Q: And the “IC50 against human 11β-HSD2” value [3]?
A: 1.5 µg/mL (≈ 4.14 µM)

Q: And the “MIC against Micrococcus luteus” value [8]?
A: 6.25 µM (≈ 2.27 µg/mL)

Q: And the IC50 [9]?
A: 9.07 ± 0.644 µM

Q: And the “IC50 against human 11β-HSD1” value [1]?
A: 9.1 µg/mL (≈ 25.1 µM)

Q: And the “MIC against Bacillus cereus” value [10]?
A: 3.12 µM (≈ 1.13 µg/mL)

Q: And the IC50 [4]?
A: 20 ± 1.38 µM

Q: What about the CC50 at 48 h [5] of the same molecule?
A: > 40 µM

Q: For `CC(C)C[C@@H](C=O)NC(=O)[C@H](CC(C)C)NC(=O)[C@H](CC(C)C)NC(=O)OCc1ccccc1` [MG-132] (Cbz-Leu-Leu-Leu-aldehyde), which IC50 [11] is on record?
A: 0.2 µM
